Experimental data taken from the NIST ThermoML archive (doi:10.1016/j.jct.2016.02.026).
Numbers after ± are expanded uncertainties.

Columns and labels:
[1] = Liquid; for mass density: 303.15 K, 91.2 kPa, Vibrating tube method; for vapor or sublimation pressure: Ebulliometric method (Recirculating still)
[2] = wn = mass fraction of the nth substance listed; settings: 303.15 K, 91.2 kPa, Liquid, Vibrating tube method

Structure (SMILES): O [water]
- mass density [1]: 996 ± 2 kg/m3
- vapor or sublimation pressure ([1]; 327.65 K): 15.32 ± 0.9 kPa
- vapor or sublimation pressure ([1]; 337.15 K): 23.61 ± 0.97 kPa
- vapor or sublimation pressure ([1]; 341.35 K): 28.46 ± 1.4 kPa
- vapor or sublimation pressure ([1]; 344.45 K): 33.81 ± 1.5 kPa
- vapor or sublimation pressure ([1]; 348.05 K): 38.36 ± 1.5 kPa
- vapor or sublimation pressure ([1]; 351.55 K): 44.42 ± 1.9 kPa
- vapor or sublimation pressure ([1]; 355.75 K): 52.9 ± 1.9 kPa
- vapor or sublimation pressure ([1]; 358.05 K): 56.84 ± 2.4 kPa
- vapor or sublimation pressure ([1]; 361.85 K): 67.25 ± 2.7 kPa
- vapor or sublimation pressure ([1]; 365.65 K): 77.55 ± 3 kPa
- vapor or sublimation pressure ([1]; 370.05 K): 91.59 ± 3.2 kPa

Structure (SMILES): OCC(O)CO [glycerol] + O
- mass density ([2]; w1 = 0.1159): 1022 ± 2 kg/m3
- mass density ([2]; w1 = 0.2056): 1044 ± 2 kg/m3
- mass density ([2]; w1 = 0.3521): 1080 ± 2 kg/m3
- mass density ([2]; w1 = 0.4646): 1108 ± 2 kg/m3
- mass density ([2]; w1 = 0.5524): 1133 ± 2 kg/m3
- mass density ([2]; w1 = 1): 1255 ± 3 kg/m3

Structure (SMILES): O [water] + [Cl-].[Na+]
- mass density ([2]; w2 = 0): 996 ± 2 kg/m3

Structure (SMILES): O [water] + [Cl-].[K+]
- mass density ([2]; w2 = 0): 996 ± 2 kg/m3

Structure (SMILES): CCO [ethanol]
- mass density [1]: 781 ± 2 kg/m3

Structure (SMILES): [Cl-].[K+] [potassium chloride] + O
- mass density ([2]; w1 = 0.0344): 1017 ± 2 kg/m3
- mass density ([2]; w1 = 0.053): 1029 ± 2 kg/m3
- mass density ([2]; w1 = 0.067): 1038 ± 2 kg/m3
- mass density ([2]; w1 = 0.0975): 1058 ± 2 kg/m3
- mass density ([2]; w1 = 0.1259): 1077 ± 2 kg/m3
- mass density ([2]; w1 = 0.1526): 1095 ± 2 kg/m3
- mass density ([2]; w1 = 0.1779): 1113 ± 2 kg/m3
- mass density ([2]; w1 = 0.2009): 1129 ± 2 kg/m3
- mass density ([2]; w1 = 0.2117): 1137 ± 3 kg/m3
- mass density ([2]; w1 = 0.2156): 1140 ± 2 kg/m3
- mass density ([2]; w1 = 0.2448): 1161 ± 3 kg/m3
- mass density ([2]; w1 = 0.2645): 1176 ± 3 kg/m3

Structure (SMILES): CCO [ethanol] + [Cl-].[Na+]
- mass density ([2]; w2 = 0): 781 ± 2 kg/m3

Structure (SMILES): O [water] + OCC(O)CO
- mass density ([2]; w2 = 0): 996 ± 2 kg/m3

Structure (SMILES): [Cl-].[Na+] [sodium chloride] + CCO
- mass density ([2]; w1 = 0.00041): 788 ± 2 kg/m3

Structure (SMILES): CCO [ethanol] + OCC(O)CO
- mass density ([2]; w2 = 0): 781 ± 2 kg/m3

Structure (SMILES): OCC(O)CO [glycerol]
- mass density [1]: 1255 ± 3 kg/m3

Structure (SMILES): OCC(O)CO [glycerol] + CCO
- mass density ([2]; w1 = 0.1529): 835 ± 2 kg/m3
- mass density ([2]; w1 = 0.2901): 888 ± 2 kg/m3
- mass density ([2]; w1 = 0.4124): 939 ± 2 kg/m3
- mass density ([2]; w1 = 0.5159): 985 ± 2 kg/m3
- mass density ([2]; w1 = 0.6211): 1036 ± 2 kg/m3
- mass density ([2]; w1 = 0.7096): 1084 ± 2 kg/m3
- mass density ([2]; w1 = 0.7971): 1136 ± 2 kg/m3
- mass density ([2]; w1 = 0.869): 1174 ± 3 kg/m3
- mass density ([2]; w1 = 0.9357): 1215 ± 3 kg/m3
- mass density ([2]; w1 = 1): 1255 ± 3 kg/m3

Structure (SMILES): [Cl-].[Na+] [sodium chloride] + O
- mass density ([2]; w1 = 0.0318): 1018 ± 2 kg/m3
- mass density ([2]; w1 = 0.0654): 1042 ± 2 kg/m3
- mass density ([2]; w1 = 0.067): 1043 ± 2 kg/m3
- mass density ([2]; w1 = 0.0949): 1063 ± 2 kg/m3
- mass density ([2]; w1 = 0.0974): 1065 ± 2 kg/m3
- mass density ([2]; w1 = 0.1232): 1084 ± 2 kg/m3
- mass density ([2]; w1 = 0.1259): 1086 ± 2 kg/m3
- mass density ([2]; w1 = 0.1578): 1110 ± 2 kg/m3
- mass density ([2]; w1 = 0.1772): 1125 ± 2 kg/m3
- mass density ([2]; w1 = 0.2013): 1144 ± 3 kg/m3
- mass density ([2]; w1 = 0.225): 1163 ± 3 kg/m3
- mass density ([2]; w1 = 0.244): 1178 ± 3 kg/m3
- mass density ([2]; w1 = 0.2672): 1195 ± 3 kg/m3
